Source: paper PMC5942844, “Identification and characterization of the Fasciola hepatica sodium- and chloride-dependent taurine transporter” (PLoS Neglected Tropical Diseases, 2018)
Read-outs that look alike come from different tables or passages of the source.

Experiments:
[1] = biological target: T1, F. hepatica taurine transporter (FhTauT) (Fasciola hepatica, UniProt A0A2R4LGM2); experiment: cell-based
T1 sequence (A0A2R4LGM2 1-647): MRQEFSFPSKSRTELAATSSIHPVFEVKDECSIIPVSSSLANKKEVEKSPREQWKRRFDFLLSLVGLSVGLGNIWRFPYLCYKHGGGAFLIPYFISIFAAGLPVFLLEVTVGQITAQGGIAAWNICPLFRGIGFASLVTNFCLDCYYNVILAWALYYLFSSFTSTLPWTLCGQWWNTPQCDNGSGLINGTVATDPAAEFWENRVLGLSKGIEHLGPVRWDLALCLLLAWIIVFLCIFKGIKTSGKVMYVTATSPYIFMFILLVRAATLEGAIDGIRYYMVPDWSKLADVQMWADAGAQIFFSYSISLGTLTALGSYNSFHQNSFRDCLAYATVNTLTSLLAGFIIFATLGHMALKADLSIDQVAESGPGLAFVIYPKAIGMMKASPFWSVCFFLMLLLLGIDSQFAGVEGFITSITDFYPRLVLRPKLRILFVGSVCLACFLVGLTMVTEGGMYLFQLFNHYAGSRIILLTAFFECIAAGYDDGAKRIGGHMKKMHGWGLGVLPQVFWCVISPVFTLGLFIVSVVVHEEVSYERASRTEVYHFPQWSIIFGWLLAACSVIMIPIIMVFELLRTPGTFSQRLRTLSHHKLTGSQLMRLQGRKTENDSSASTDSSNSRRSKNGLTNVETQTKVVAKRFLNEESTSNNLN
Method: (§1) Human embryonic kidney-293 (HEK293 (ATCC CRL-1573, LGC standards Wesel, Germany)) cells, were grown in Dulbecco`s modified Eagle medium (DMEM) supplemented with 10% fetal bovine serum (FCS Nuaille, France), 100 units/ml penicillin and 100 μg/ml streptomycin at 37°C and with 5% CO2 in a humidified incubator. Cells were transfected with plasmids encoding fluorescently tagged or untagged versions of F. hepatica (FhTauT) and H. sapiens (HsTauT) taurine transporter using Jet Prime transfection reagent (Polyplus-transfection, France). To generate monoclonal cell lines stably expressing the transporters, transfected cells were subjected to and selected with the concentration of 0.2 mg/ml geneticin (G418) for 10 days. Surviving cells forming colonies were separated and analyzed for membrane localization of transporters and transport of taurine. After the selection process cells were kept at 50 μg/ml G418 to keep the selection pressure.
(§2) For saturation uptake experiments, cells were plated the day before the experiment at a density of about 50,000 cells/well onto poly (D-lysine)-coated 48-well culture plates (CytoOne, USA). On the day of the experiment, cells were washed with prewarmed Krebs-HEPES buffer twice (KHB) (120 mM NaCl, 3 mM KCl, 2 mM CaCl2, 2 mM MgCl2, 20 mM glucose, 10 mM HEPES, pH 7.3). Then, cells were incubated in KHB containing tracer amounts (0.1 μM) of [^3H]taurine, (19.1 Ci/mmol) (Perkin Elmer, USA) together with increasing concentrations of non-labeled taurine 10 min. The reaction was terminated after 10 minutes by removing the medium followed by rapid rinsing of cells with ice-cold assay buffer. Subsequently, cells were lysed with 0.5 ml of 1% sodium dodecyl sulfate (SDS) and transferred into scintillation vials for liquid scintillation counting. Non-specific uptake was determined by incubating cells in the presence of the blocker β-alanine (100 mM) before and during the experiment and subtracted from uptake values. Data were fit to a Michaelis-Menten equation.
(§3) Chloride-free KHB was prepared to examine the chloride dependence of both, FhTauT and HsTauT using acetate salts instead of chloride salts. Likewise, NaCl was replaced by choline chloride to examine the sodium requirement. Uptake experiments were performed as described above using 0.1 μM [^3H]taurine in sodium- and chloride-free modified KHB, respectively, mixed with increasing amounts of NaCl containing KHB thereby varying Na^+ and respectively Cl^- concentration from 0–120 mM. The inhibition experiments were performed in analogous manner with 0.1 μM [^3H]taurine and the logarithmically spaced concentrations of inhibitors.

[2] = biological target: T2, human taurine transporter (HsTauT) (Homo sapiens, UniProt P31641); experiment: [3H]taurine uptake by HEK293 cells stably expressing the human taurine transporter; conditions: 0.1 μM [3H]taurine, 10 min
T2 sequence (P31641 1-620): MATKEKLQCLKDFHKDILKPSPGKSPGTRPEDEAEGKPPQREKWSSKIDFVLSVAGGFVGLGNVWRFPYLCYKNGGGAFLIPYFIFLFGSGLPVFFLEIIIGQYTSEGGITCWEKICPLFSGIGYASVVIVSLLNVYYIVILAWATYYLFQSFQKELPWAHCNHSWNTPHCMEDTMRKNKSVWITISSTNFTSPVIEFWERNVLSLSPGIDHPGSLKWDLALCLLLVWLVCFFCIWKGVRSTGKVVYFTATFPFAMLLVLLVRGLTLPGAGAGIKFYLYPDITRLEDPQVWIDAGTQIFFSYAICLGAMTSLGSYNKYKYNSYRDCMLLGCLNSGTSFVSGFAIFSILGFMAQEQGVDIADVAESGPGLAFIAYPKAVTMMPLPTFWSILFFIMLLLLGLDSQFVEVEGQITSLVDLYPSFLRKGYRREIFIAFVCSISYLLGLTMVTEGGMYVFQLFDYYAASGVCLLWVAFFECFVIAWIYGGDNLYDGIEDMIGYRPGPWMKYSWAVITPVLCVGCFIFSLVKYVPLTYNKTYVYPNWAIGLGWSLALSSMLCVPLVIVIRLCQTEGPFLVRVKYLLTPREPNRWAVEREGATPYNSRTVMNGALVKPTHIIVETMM
Method: as §1, §2, §3

[3] = test system: taurine transporter (Slc6a6/TauT); conditions: read-out: reported KM for GABA; cited from earlier work
[4] = biological target: T2, human taurine transporter (HsTauT); experiment: [3H]GABA uptake by HEK293 cells expressing the human taurine transporter; assay type: cell-based; design: expressed in transfected cells; conditions: 0.3 μM to 3 mM [3H]GABA, three minutes
Method: (§4) GABA uptake was assessed by incubating HEK293 cells (10^5/ well) stably expressing the human GABA-transporter-1 (HsGAT1, diamonds), the F. hepatica taurine transporter (FhTauT, circles) and the human taurine transporter (HsTauT, triangles) in KHB containing concentrations of [^3H]GABA covering the range of 0.3 μM to 3 mM for three minutes. The amount of labeled [^3H]GABA was kept constant and the specific activity was progressively diluted by the addition of unlabeled GABA (from 9 Ci/mmol to 9 Ci/mol). The reaction was stopped by the addition of ice-cold KHB followed by three rapid washes. Cells were detached and the accumulated radioactivity was determined by liquid scintillation counting.
(§5) Supplementary file pntd.0006428.s004.tif: S4 Fig [^3H]GABA uptake by the human GABA-transporter-1, the F. hepatica taurine transporter and the human taurine transporter. HEK293 cells (10^5/ well) stably expressing the human GABA-transporter-1 (HsGAT1, diamonds), the F. hepatica taurine transporter (FhTauT, circles) and the human taurine transporter (HsTauT, triangles) were incubated in the presence of the indicated concentrations of [^3H]GABA. The specific activity was progressively diluted by addition of unlabeled GABA (from 9 Ci/mmol to 9 Ci/mol). After three minutes the reaction was stopped and the accumulated radioactivity was determined by liquid scintillation counting. […]

[5] = biological target: T1, F. hepatica taurine transporter (FhTauT); experiment: [3H]GABA uptake by HEK293 cells expressing the F. hepatica taurine transporter; assay type: cell-based; conditions: 0.3 μM to 3 mM [3H]GABA, three minutes
Method: as §4, §5

[6] = test system: taurine transporter; design: method as in PMID 1435737; conditions: 100 μM β-alanine; cited from earlier work

Row | SMILES | less potent in inhibiting the F. hepatica than the human transporter [1] | affinity lower than that of taurine ([1]; alternative substrates vs taurine) [fold] | IC50 ([1]; read-out: IC50 for inhibition of [3H]taurine uptake, 0.1 μM [3H]taurine, 10 min) [µM] | IC50 ([2]; read-out: IC50 for inhibition of [3H]taurine uptake) [µM] | Km [3] [µM] | uptake of [3H]GABA [4] | uptake of [3H]GABA [5] | uptake of [3H]GABA ([5]; listed as [^3H]GABA) | inhibition of uptake [6] | IC50 [1] [µM] | affinity lower than that of taurine [1] | less potent in inhibiting the F. hepatica than the human transporter ([1]; human, hek293 cells) [fold] | IC50 ([2]; IC50 for inhibition of [3H]taurine uptake) [µM]
1 | NCCCC(=O)O [GABA] | about 3 fold | ~350 | 5600 ± 900 | 1600 ± 500 | 1460 | failed to detect any uptake | not of GABA | failed to detect any uptake |  |  |  |  | 
2 | NCCC(=O)O [β-alanine] |  |  |  |  |  |  |  |  | about 50% | 713 ± 260 | about 50 fold | ~5 | 132 ± 54
